Data as given in publication PMC12376128, “In vitro and In Vivo Drug Metabolism Analysis of BPI-460372 - A Covalent TEAD1/3/4 Inhibitor” (Current Drug Metabolism, 2025).

Tests used:
CYP2C8 = assay: Metabolic stability in HLMs with or without specific CYP inhibitor (quercetin); format: in vitro ADME, human; settings: HLMs 1 mg protein/mL, substrate 1 μM, quercetin 20 µM
Protocol: (§1) Before starting the experiments, the HLMs were thawed gently on ice. Metabolic stability incubations were performed at 37 °C. The incubations contained 100 mM phosphate buffer saline (PBS, pH 7.4), HLMs (1 mg protein·mL^-1), dimethyl sulfoxide (DMSO, blank control) or a selective CYP inhibitor, and BPI-460372 or positive control substrates (final incubation concentration, 1 μM). The incubation process started with the addition of NADPH (1 mM final concentration) after a 5-minute preincubation period. The chemical inhibitors were as follows: a-naphthoflavone (2 µM) for CYP1A2, ticlopidine (20 µM) for 2B6, quercetin (20 µM) for CYP2C8, sulfaphenazole (20 µM) for CYP2C9, ticlopidine (200 µM) for CYP2C19, quinidine (20 µM) for CYP2D6, and ketoconazole (20 µM) for CYP3A [9]. Aliquots were maintained in acetonitrile containing internal standard (IS) at various time points, such as 0 min, 5 min, 10 min, 20 min, 30 min, and 60 min. All incubations were performed in triplicate, and the concentration in the supernatant was determined by liquid chromatography-tandem mass spectrometry (LC-MS/MS).
(§2) The elimination rate constant k (min^-1) was obtained by linear regression from the natural logarithm of the […] of the parent drug and the incubation time. The inhibition rate was calculated using equation 1 [10]: […]

rat hepatocytes = assay: in vitro
Protocol: (§3) After mixing, 20 μL of cell suspension was serially transferred into 200 μL of cold acetonitrile containing IS at the time points of 0, 5, 15, 30, 60, and 120 min, respectively.
(§4) The metabolic stability was assessed by measuring the depletion of substrate. The half-life (t1/2), intrinsic clearance (CLint, in virto, µL·min^-1·million cells^-1), whole liver intrinsic clearance (CLint, in vivo, mL·min-1·kg^-1), and in vivo hepatic clearance (CLH, mL·min-1·kg^-1) were calculated following a reported method. In the calculation of CLH, the fraction drug unbound (Fub) was set as 1. The hepatic blood flow, liver weight, and hepatocellularity of five species were used for the calculation of CLint, in vivo [13, 14]. The hepatic extraction ratio (Eh) means the ratio of CLH to hepatic blood flow.

dog hepatocytes = assay: in vitro
Protocol: as §3, §4

human hepatocytes = assay: in vitro
Protocol: as §3, §4

in vitro = settings: hepatocytes
Protocol: as §3, §4

monkey hepatocytes = assay: in vitro
Protocol: as §3, §4

mouse hepatocytes = assay: in vitro
Protocol: as §3, §4

CYP2C19 = assay: Metabolic stability in HLMs with or without specific CYP inhibitor (ticlopidine 200 µM); format: in vitro ADME, human; settings: HLMs 1 mg protein/mL, substrate 1 μM
Protocol: as §1, with “The incubations contained 100 mM phosphate buffer saline (PBS, pH 7.4), HLMs (1 mg protein·mL^-1), dimethyl sulfoxide (DMSO, blank control) or a selective CYP inhibitor, and BPI-460372 or positive control substrates (final incubation concentration, 1 μM).” left out
as §2

[1] = Metabolite identification in rat plasma, urine, feces and bile; format: in vivo, SD rats
How it was run: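 Pooled sex-specific samples from SD rats: plasma after 12 mg/kg, urine, feces and bile (collected over 0-48 h) after 6 mg/kg; beagle dog plasma after 8 mg/kg. Acetonitrile extraction (urine centrifuged only), dried, redissolved in acetonitrile/water 20:80, analysed by UHPLC-Orbitrap-HRMS.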

[2] = oral 6 mg/kg BPI-460372, average of male and female pooled samples

With `C=C(F)C(=O)N1CC(n2c(=O)n(-c3ccc(C(F)(F)F)cc3)c3nccnc32)C1` [BPI-460372] the “Inhibition Rate” value (CYP2C8) was 53.9%, the CLH (rat hepatocytes; SD, rat, 1 µM) was 11.0 mL/min/kg and the Eh (rat hepatocytes; SD, rat, 1 µM) was 0.200. For the same compound, the “Remaining percentage after 120 min incubation” value (from here on “Remaining percentage”) (rat hepatocytes; SD, rat, hepatocytes, 2 h, 1 µM) was 72.4%, the “CLint, in vivo” value (rat hepatocytes; hepatocytes) was 13.8 mL/min/kg and the “CLint, in virto” value (rat hepatocytes; rat, hepatocytes) was 2.941 µL·min^-1·Million cells^-1. The “Clearance class from Eh” value (rat hepatocytes; rat, hepatocytes) was “low clearance”, the CLH (dog hepatocytes; beagle, dog, 1 µM) was 13.8 mL/min/kg and the Eh (dog hepatocytes; beagle, dog, 1 µM) was 0.446. For the same compound, the “Remaining percentage” value (dog hepatocytes; beagle, dog, hepatocytes, 2 h, 1 µM) was 66.6%, the “CLint, in virto” value (dog hepatocytes; dog, hepatocytes) was 3.619 µL·min^-1·Million cells^-1 and the “Clearance class from Eh” value (dog hepatocytes; dog, hepatocytes) was “moderate clearance”. For the same compound, the “CLint, in vivo” value (dog hepatocytes; hepatocytes) was 24.9 mL/min/kg, the “CLint, in vivo” value (human hepatocytes; hepatocytes) was 2.7 mL/min/kg and the CLH (human hepatocytes; human, 1 µM) was 2.4 mL/min/kg. For the same compound, the Eh (human hepatocytes; human, 1 µM) was 0.115, the “CLint, in virto” value (human hepatocytes; human, hepatocytes) was 0.746 µL·min^-1·Million cells^-1 and the “Clearance class from Eh” value (human hepatocytes; human, hepatocytes) was “low clearance”. For the same compound, the “Remaining percentage” value (human hepatocytes; human, hepatocytes, 2 h, 1 µM) was 97.3%, the half-life at 1 µM (in vitro; ICR, mouse) was 2.23 h and the half-life at 1 µM (in vitro; SD, rat) was 3.93 h. The half-life at 1 µM (in vitro; beagle, dog) was 3.19 h, the half-life at 1 µM (in vitro; human) was 15.5 h and the half-life at 1 µM (in vitro; monkey) was 2.79 h. For the same compound, the CLH (monkey hepatocytes; cynomolgus monkey, 1 µM) was 11.1 mL/min/kg, the Eh (monkey hepatocytes; cynomolgus monkey, 1 µM) was 0.253 and the “CLint, in vivo” value (monkey hepatocytes; hepatocytes) was 14.9 mL/min/kg. For the same compound, the “CLint, in virto” value (monkey hepatocytes; monkey, hepatocytes) was 4.145 µL·min^-1·Million cells^-1, the “Clearance class from Eh” value (monkey hepatocytes; monkey, hepatocytes) was “low clearance” and the “Remaining percentage” value (monkey hepatocytes; monkey, hepatocytes, 2 h, 1 µM) was 61.7%. The CLH (mouse hepatocytes; ICR, mouse, 1 µM) was 36.6 mL/min/kg, the Eh (mouse hepatocytes; ICR, mouse, 1 µM) was 0.406 and the “Remaining percentage” value (mouse hepatocytes; ICR, mouse, hepatocytes, 2 h, 1 µM) was 54.7%. The “CLint, in vivo” value (mouse hepatocytes; hepatocytes) was 61.6 mL/min/kg, the “CLint, in virto” value (mouse hepatocytes; mouse, hepatocytes) was 5.187 µL·min^-1·Million cells^-1 and the “Clearance class from Eh” value (mouse hepatocytes; mouse, hepatocytes) was “moderate clearance”. The “Inhibition Rate” value (CYP2C19) was -4.2%, the “Relative abundance of MS peak areas, Rat Bile 0-48 h” value [1, 2] was 0.67% and the “Relative abundance of MS peak areas, Rat Feces 0-48 h” value [1, 2] was 16.95%. For the same compound, the “Relative abundance of MS peak areas, Rat Urine 0-48 h” value [1, 2] was 0.12% and the “Relative abundance of MS peak areas, Rat Plasma 0-24 h” value ([1]; oral 12 mg/kg BPI-460372, average of male and female pooled samples) was 75.36%.
